Reference: patent US20260125374A1, “PI3K-ALPHA INHIBITORS AND METHODS OF MAKING AND USING THE SAME” (Relay Therapeutics, Inc., priority 2021, published 2026)

Test: Salt screening (XRPD, chiral purity of hits)
Assay type: physicochemical
Procedure: Based on the pKa of I-1 free form, 23 counter ions were selected as salt/cocrystal forming agents. Methanol, acetone and isopropyl acetate were used as screening solvents. 1.0 equivalent of selected counter ions/coformers was applied for salt screening. Slurry equilibration, slow evaporation and anti-solvent addition were used as crystallization methods. In total, about 70 screening experiments were conducted.
About 50 mg of I-1 Form A were added to a suitable amount of solvent and 1.0 equivalent of counter ions were added under stirring at 50° C. for 2 hours and then at 25° C. for at least 12 hours. MeOH, acetone and IPAc were used as screening solvents.
Obtained suspensions were taken out and centrifuged. Solids obtained were analyzed by XRPD and salt screening results were summarized in Table 5.1, Table 5.2, and Table 5.3.

N#Cc1c(-c2cc(NC(=O)c3cc(F)cc(C(F)(F)F)c3)c3c(c2)C(=O)N[C@H]3c2cc(F)ccc2Cl)ccc2ncnn12 [Compound I-1, (R)-N-(3-(2-chloro-5-fluorophenyl)-6-(5-cyano-[1,2,4]triazolo[1,5-a]pyridin-6-yl)-1-oxoisoindolin-4-yl)-3-fluoro-5-(trifluoromethyl)benzamide]
Salt screening result (slurry crystallization) (1.0 equiv. HCl, Isopropyl acetate (second block of table)): clear solution | Salt screening result (slurry crystallization) (1.0 equiv. HCl, MeOH): − (I-1 Form A) (Free form, counter ions, or physical mixtures) | Salt screening result (slurry crystallization) (1.0 equiv. Hydrobromic acid, Acetone): thin suspension | Salt screening result (anti-solvent) (1.0 equiv. Hydrobromic acid, Acetone/MTBE): thin suspension | Salt screening result (anti-solvent) (1.0 equiv. Hydrobromic acid, IPAc/MTBE): thin suspension | Salt screening result (slurry crystallization) (1.0 equiv. Hydrobromic acid, Isopropyl acetate): clear solution | Salt screening result (slurry crystallization) (1.0 equiv. Hydrobromic acid, MeOH): − (I-1 Form A) (Free form, counter ions, or physical mixtures) | Salt screening result (slurry crystallization) (1.0 equiv. L-aspartic acid, Acetone): − (physical mixtures (Free form, counter ions, or physical mixtures) | Salt screening result (slurry crystallization) (1.0 equiv. L-aspartic acid, Isopropyl acetate): − (physical mixtures (Free form, counter ions, or physical mixtures) | Salt screening result (slurry crystallization) (1.0 equiv. L-aspartic acid, MeOH): − (physical mixtures (Free form, counter ions, or physical mixtures) | Salt screening result (slurry crystallization) (1.0 equiv. L-glutamic acid, Acetone): − (physical mixtures (Free form, counter ions, or physical mixtures) | Salt screening result (slurry crystallization) (1.0 equiv. L-glutamic acid, Isopropyl acetate): − (physical mixtures (Free form, counter ions, or physical mixtures) | Salt screening result (slurry crystallization) (1.0 equiv. L-glutamic acid, MeOH): − (physical mixtures (Free form, counter ions, or physical mixtures) | Salt screening result (slurry crystallization) (1.0 equiv. L-malic acid, Acetone): thin suspension | Salt screening result (anti-solvent) (1.0 equiv. L-malic acid, Acetone/MTBE): −(I-1 Form B) (Free form, counter ions, or physical mixtures) | Salt screening result (slurry crystallization) (1.0 equiv. L-malic acid, Isopropyl acetate): − (I-1 Form A) (Free form, counter ions, or physical mixtures) | Salt screening result (slurry crystallization) (1.0 equiv. L-malic acid, MeOH): − (I-1 Form A) (Free form, counter ions, or physical mixtures) | Salt screening result (slurry crystallization) (1.0 equiv. L-tartaric acid, Acetone): thin suspension | Salt screening result (anti-solvent) (1.0 equiv. L-tartaric acid, Acetone/MTBE): −(I-1 Form B) (Free form, counter ions, or physical mixtures) | Salt screening result (slurry crystallization) (1.0 equiv. L-tartaric acid, Isopropyl acetate): − (I-1 Form A) (Free form, counter ions, or physical mixtures) | Salt screening result (slurry crystallization) (1.0 equiv. L-tartaric acid, MeOH): − (I-1 Form A) (Free form, counter ions, or physical mixtures) | Salt screening result (slurry crystallization) (1.0 equiv. citric acid, Acetone): thin suspension | Salt screening result (anti-solvent) (1.0 equiv. citric acid, Acetone/MTBE): −(I-1 Form B) (Free form, counter ions, or physical mixtures) | Salt screening result (slurry crystallization) (1.0 equiv. citric acid, Isopropyl acetate): − (I-1 Form A) (Free form, counter ions, or physical mixtures) | Salt screening result (slurry crystallization) (1.0 equiv. citric acid, MeOH): − (I-1 Form A) (Free form, counter ions, or physical mixtures) | Salt screening result (slurry crystallization) (1.0 equiv. fumaric acid, Acetone): − (physical mixtures (Free form, counter ions, or physical mixtures) | Salt screening result (slurry crystallization) (1.0 equiv. fumaric acid, Isopropyl acetate): − (physical mixtures (Free form, counter ions, or physical mixtures) | Salt screening result (slurry crystallization) (1.0 equiv. fumaric acid, MeOH): − (I-1 Form A) (Free form, counter ions, or physical mixtures) | Salt screening result (slurry crystallization) (1.0 equiv. gentisic acid, Acetone): thin suspension | Salt screening result (anti-solvent) (1.0 equiv. gentisic acid, Acetone/MTBE): −(I-1 Form B) (Free form, counter ions, or physical mixtures) | Salt screening result (slurry crystallization) (1.0 equiv. gentisic acid, Isopropyl acetate): − (I-1 Form A) (Free form, counter ions, or physical mixtures) | Salt screening result (slurry crystallization) (1.0 equiv. gentisic acid, MeOH): − (I-1 Form A) (Free form, counter ions, or physical mixtures) | Salt screening result (slurry crystallization) (1.0 equiv. isonicotinamide, Acetone): thin suspension | Salt screening result (anti-solvent) (1.0 equiv. isonicotinamide, Acetone/MTBE): −(I-1 Form B) (Free form, counter ions, or physical mixtures) | Salt screening result (slurry crystallization) (1.0 equiv. isonicotinamide, Isopropyl acetate): − (physical mixtures (Free form, counter ions, or physical mixtures) | Salt screening result (slurry crystallization) (1.0 equiv. isonicotinamide, MeOH): − (I-1 Form A) (Free form, counter ions, or physical mixtures) | Salt screening result (slurry crystallization) (1.0 equiv. maleic acid, Acetone): thin suspension | Salt screening result (anti-solvent) (1.0 equiv. maleic acid, Acetone/MTBE): −(I-1 Form B) (Free form, counter ions, or physical mixtures) | Salt screening result (slurry crystallization) (1.0 equiv. maleic acid, Isopropyl acetate): − (I-1 Form A) (Free form, counter ions, or physical mixtures) | Salt screening result (slurry crystallization) (1.0 equiv. maleic acid, MeOH): − (I-1 Form A) (Free form, counter ions, or physical mixtures) | Salt screening result (slurry crystallization) (1.0 equiv. malonic acid, Acetone): thin suspension | Salt screening result (anti-solvent) (1.0 equiv. malonic acid, Acetone/MTBE): −(I-1 Form B) (Free form, counter ions, or physical mixtures) | Salt screening result (slurry crystallization) (1.0 equiv. malonic acid, Isopropyl acetate): − (I-1 Form A) (Free form, counter ions, or physical mixtures) | Salt screening result (slurry crystallization) (1.0 equiv. malonic acid, MeOH): − (I-1 Form A) (Free form, counter ions, or physical mixtures) | Salt screening result (slurry crystallization) (1.0 equiv. methanesulfonic acid, Acetone): thin suspension | Salt screening result (anti-solvent) (1.0 equiv. methanesulfonic acid, IPAc/MTBE): thin suspension | Salt screening result (slurry crystallization) (1.0 equiv. methanesulfonic acid, Isopropyl acetate): thin suspension | Salt screening result (slurry crystallization) (1.0 equiv. naphthalene-1,5-disulfonic acid, Acetone): thin suspension | Salt screening result (slurry crystallization) (1.0 equiv. naphthalene-1,5-disulfonic acid, Isopropyl acetate, 3 days): 3 days: AF; | Salt screening result (slurry crystallization) (1.0 equiv. naphthalene-1,5-disulfonic acid, Isopropyl acetate, for another 3 days): 3 days: AF | Salt screening result (slurry crystallization) (1.0 equiv. naphthalene-1,5-disulfonic acid, MeOH): + (I-1 Form A ) (Salt hits) | Salt screening result (slurry crystallization) (1.0 equiv. naphthalene-1,5-disulfonic acid, MeOH/water(9:1, v/v)): − (physical mixtures of (Free form, counter ions, or physical mixtures) | Crystallinity of salt screening solid (1.0 equiv. naphthalene-1,5-disulfonic acid, MeOH, dried at 50° C. for 21 h): low crystallinity | Salt screening result (slurry crystallization) (1.0 equiv. naphthalene-2-sulfonic acid, Isopropyl acetate): thin suspension | Salt screening result (slurry crystallization) (1.0 equiv. nicotinamide, Acetone): thin suspension | Salt screening result (anti-solvent) (1.0 equiv. nicotinamide, Acetone/MTBE): −(I-1 Form B) (Free form, counter ions, or physical mixtures) | Salt screening result (slurry crystallization) (1.0 equiv. nicotinamide, Isopropyl acetate): − (physical mixtures (Free form, counter ions, or physical mixtures) | Salt screening result (slurry crystallization) (1.0 equiv. nicotinamide, MeOH): − (I-1 Form A (Free form, counter ions, or physical mixtures) | Salt screening result (slurry crystallization) (1.0 equiv. nicotinic acid, Acetone): − (physical mixtures (Free form, counter ions, or physical mixtures) | Salt screening result (slurry crystallization) (1.0 equiv. nicotinic acid, Isopropyl acetate): − (physical mixtures (Free form, counter ions, or physical mixtures) | Salt screening result (slurry crystallization) (1.0 equiv. nicotinic acid, MeOH): − (physical mixtures (Free form, counter ions, or physical mixtures) | Salt screening result (slurry crystallization) (1.0 equiv. phosphoric acid, Acetone): thin suspension | Salt screening result (anti-solvent) (1.0 equiv. phosphoric acid, Acetone/MTBE): −(I-1 Form B) (Free form, counter ions, or physical mixtures) | Salt screening result (slurry crystallization) (1.0 equiv. phosphoric acid, Isopropyl acetate): − (I-1 Form A) (Free form, counter ions, or physical mixtures) | Salt screening result (slurry crystallization) (1.0 equiv. phosphoric acid, MeOH): − (I-1 Form A) (Free form, counter ions, or physical mixtures) | Salt screening result (slurry crystallization) (1.0 equiv. sodium hydroxide, Acetone): thin suspension | Salt screening result (slurry crystallization) (1.0 equiv. sodium hydroxide, Isopropyl acetate, for another 3 days): another 3 days: AF | Salt screening result (slurry crystallization) (1.0 equiv. sodium hydroxide, MeOH): clear solution | Salt screening result (slurry crystallization) (1.0 equiv. sulfuric acid, Acetone): thin suspension | Salt screening result (anti-solvent) (1.0 equiv. sulfuric acid, Acetone/MTBE): thin suspension | Salt screening result (slurry crystallization) (1.0 equiv. sulfuric acid, Isopropyl acetate): thin suspension | Salt screening result (slurry crystallization) (1.0 equiv. sulfuric acid, MeOH): − (I-1 Form A) (Free form, counter ions, or physical mixtures) | Salt screening result (slurry crystallization) (1.0 equiv. theobromine, Acetone): − (physical mixtures (Free form, counter ions, or physical mixtures) | Salt screening result (slurry crystallization) (1.0 equiv. theobromine, Isopropyl acetate): − (physical mixtures (Free form, counter ions, or physical mixtures)
